Values after ≈ are worked out from the molar mass of the structure shown. Like-named read-outs stand apart in the source and are kept apart here.
Key:
[1] = tested on: HSV-2 genital herpes; test: Treatment of HSV-2 genital herpes in human subjects; format: in vivo
Description: An otherwise healthy person presented pain with urination and a solitary sore on the vulva. It was initially unclear by visible inspection if the solitary sore was herpes or a shave injury. […] The patient reported Pain 7/10, and worse with urination. […] The patient was given the formulation to use at home (two applications per day). The patient was also offered a prescription for 1 gram of Valtrex to be taken twice a day.
As a comparison, before the date of the patient's treatment, typical otherwise healthy female patients of this same age presenting similar herpes sores are given a prescription for Valtrex and take up to two weeks to resolve their herpes ulcers.
A second human subject with a long history of HSV-2 who has previously taken oral Valtrex™ (Valacyclovir) to resolve past HSV-2 ulcerations was administered a representative pharmaceutical composition of this disclosure as described in Example 1. The subject has previously resolved HSV-2 ulcerations in 5-7 days after outbreak when administered Valtrex. The subject was administered the representative tetracaine composition twice a day for two days at which point the subject's lesions were completely re-epithelialized and the pain was reduced to 0/10. Before treatment, the subject reported pain at 5/10 at max. […]

[2] = tested on: HSV-2 mediated calcium flux in HEK293-RyR1 cells; test: Calcium flux assay with Fluo-4 Direct Calcium Assay Kit; format: cell-based; conditions: for RFU drop in calcium flux: FIG. 6A-6B legend; for maximum average ΔRFU: treated cells minus cells only, HSV-2 MOI 0.01
Procedure: The Fluo-4 Direct™ Calcium Assay Kit was be used to assess calcium response in RyR1-expressing cells treated with a calcium agonist (Carbachol) or infected with HSV-2 MS at an MOI of 0.01. For the virus-infected cells, procedures as described above were followed but with a 96-well black plate.
Cells were seeded in 100 μL of incubation medium in black 96-well plates coated with poly-D-lysine at 5.0E+04 cells per well and incubated at 37° C. with 5% CO2 overnight (16-20 hours). […]
A 2× Fluo-4 Direct™ calcium reagent loading solution with 5 mM probenecid was prepared by adding 10 mL of Fluo-4 Direct™ calcium assay buffer and 200 μL of the 250 mM stock solution of probenecid to one bottle of 2× Fluo-4 Direct™ calcium reagent (labeled Component A). The solution was vortexed and allowed to sit for five minutes for complete dissolution. […]
The fluorescence of each well was measured directly after the addition of carbachol with the Biotek Cytation 5 plate reader using the fluorescence reader settings for excitation at 494/10 nm and emission at 520/10 nm. The fluorescence measurements in relative fluorescence units (RFU) were recorded and exported to Excel.
ΔRFU is given in relative fluorescent units (RFU) as the maximum response (TA or virus treated cells) minus the minimum response (cells only).
On day 3, a 250 mM stock solution of probenecid was prepared by adding 1 mL of Fluo-4 Direct™ calcium assay buffer (labeled Component C) to each 77 mg vial of water-soluble probenecid. The vial was vortexed until dissolved.
Plated cells were removed from the incubator. TA/virus dilutions were removed and 100 μL of incubation medium was added to the plate. Then, 100 μL of 2× Fluo-4 Direct™ calcium reagent loading solution was added. Plates were incubated for 30 minutes at 37° C. with 5% CO2 followed by 30 minutes at room temperature. Carbachol dilutions (100 μL) were added to the plate that contains only cells as a positive control.

[3] = base form versus salt form (Miller et al. 1993); cited from earlier work
[4] = tested on: HSV-2 MS in HEK293-RyR1 cells; test: HSV-2 cytopathic effect (CPE) inhibition assay, crystal violet staining; format: cell-based, Herpes Simplex Virus 2, strain MS; conditions: for IC50: Human alphaherpesvirus 2, 72 h, read-out: IC50, CPE inhibition
Procedure: HSV-2 infection was established in HEK293-RyR1 cells by testing three different multiplicities of infection (MOI) as part of the development of the CPE inhibition assay. An inhibitor of HSV-2 was incubated with cells and subsequently infected with HSV-2 at three different MOIs. Cells-only and virus-only controls were included. Cells were observed daily to monitor CPE progression, and the incubation was allowed to continue until sufficient CPE of 60-80% is observed in the virus-only controls. CPE was quantified via crystal violet staining and results given as % inhibition and IC50 values, 50% of the maximum inhibitory dosage of the test article.
The virus was Herpes Simplex Virus 2, strain MS, lot 7172020, at MOI of 0.01 (ATCC, Catalog #VR-540). HEK293-RyR1 cell line was obtained from Kerafast (Cat. #EUR301). Growth medium was DMEM (High Glucose) supplemented with 10% FBS, 2 mM L-Glutamine, 1% Pen/Strep, 100 µg/ml Hygromycin. Incubation medium was DMEM (High Glucose) supplemented with 2% FBS, 2 mM L-Glutamine, 1% Pen/Strep. Infection medium was DMEM (High Glucose) supplemented with 2 mM L-Glutamine, 1% Pen/Strep. Acyclovir (as a control HSV-2 MS inhibitor) was stored at cell culture grade water (Ultrapure DNAse/RNase free distilled water, Thermo Scientific Cat. 10977015) and tested at concentrations of 10, 3.2, 1.0, 0.32, 0.10, 0.032, 0.010, 0.0032 50, 25, 12.5, 6.25, 3.125, 1.5625, 0.78125, 0.3906 100, 50, 25, 12.5, 6.25, 3.125, 1.5625, 0.78125 mg/ml. Carbachol (a Calcium agonist), obtained from Fisher Scientific (ASL0667403) was stored in cell culture-grade water and tested at concentrations of 333, 166.65, 83.325, 41.6625 mg/ml. […]
HSV-2 MS was prepared at the specific MOI in infection medium and added to the acyclovir/TA-containing wells in a dilution block. […] Plates were monitored daily to observe CPE levels. […]
After one hour, plates were washed with tap water and blotted on absorbent paper. Plates were allowed to air dry, and the absorbance of each well was read at 570 nm with a plate reader.
Absorbance values were exported into Excel. […]

[5] = at the highest concentration tested

SMILES | time to resolve HSV-2 ulcerations after outbreak ([1]; person, past outbreaks, oral) [days] | time to resolve herpes ulcers ([1]; typical otherwise healthy female patients of same age with similar herpes sores, prescription) | RFU drop in calcium flux [2] | fold higher average ΔRFU than Acyclovir [2, 5] [fold] | maximum average ΔRFU [2, 5] [RFU] | flux through the dermis [3] | IC50 [4] [mg/mL] | cell morphology of treated cells ([4]; compared to cells only, virus-only and Acyclovir-treated cells, day 3 (FIG. 5D)) | IC50 ([4]; HSV-2 MOI 0.01, 5.0×10^4 HEK293-RyR1 cells per well, day 3) [mg/mL]
CC(C)[C@H](N)C(=O)OCCOCn1cnc2c(=O)[nH]c(N)nc21 [Valtrex] | 5 to 7 | up to two |  |  |  |  |  |  | 
CCCCNc1ccc(C(=O)OCCN(C)C)cc1 [Tetracaine, 2-(dimethylamino)ethyl 4-(butylamino)benzoate] |  |  | 4000 RFU | 3.6 | −6527.9 | fluxes more readily than the salt form | 94.6 (≈ 358 mM) | Abnormal cell morphology | 
Nc1nc2c(ncn2COCCO)c(=O)[nH]1 [Acyclovir] |  |  | about 2000 RFU |  | −1801.6 |  |  |  | 0.0457 (≈ 0.203 mM)
